The source of these data is patent US20230257373A1, “QUORUM SENSING INHIBITORS AND METHODS OF USE” (priority 2020, published 2023).

pIC50: −log10 of the molar value.

In assay [1] the test system is HapR. Description: E. coli bioassay expressing HapR (IPTG-inducible plasmid). Format: cell-based, V. cholerae. The source says: (§1) We hypothesized that there were several possible reasons for the observed difference in PTSP inhibition in the various Vibrio species, including but not limited to: 1) differences in LuxR-inhibitor interaction(s), 2) differences in diffusion of the inhibitor across the membranes, or 3) stability of the inhibitor in the cell and/or cell culture. To examine PTSP activity in a common strain background, we cloned the luxR gene from each Vibrio species into a plasmid under control of an IPTG-inducible promoter and assayed the effect of PTSP against these proteins in the E. coli bioassay. […] We conclude that the differences in PTSP activity in Vibrio species is due to differences in interaction between PTSP and the LuxR-type protein in each Vibrio.
We therefore sought to determine if any of the four residues that differ between HapR and LuxR/SmcR in the putative ligand binding pocket are sufficient to render SmcR insensitive to PTSP. First, we introduced substitutions in SmcR to mimic the amino acid sequence of HapR: F75Y, I96L, […], and C170F. […] Next, we introduced single substitutions in HapR to mimic the amino acid present in SmcR: Y76F, L97I, I141V, and F171C.
(§2) In E. coli assays expressing the five different LuxR-type proteins (luxR, smcR, opaR, vcpR, hapR), slight changes to the protocol were implemented. The luxR genes were cloned under control of the IPTG-inducible Ptac promoter in plasmid pMMB67EH-kanR. […] Strains expressing hapR or smcR required 50 μM IPTG to observe activation of the GFP reporter; IPTG was not added to strains expressing luxR, vcpR, or opaR.

In assay [2] the test system is V. cholerae. Description: Quorum sensing reporter in V. cholerae. The settings on record: even at high concentrations.
The test system of assay [3] is V. campbellii. Description: Growth of V. campbellii with inhibitor. The settings on record: high concentrations. Format: cell-based. The source says:
Many sulfonamide-containing compounds are known to target the folate synthesis pathway in bacteria and inhibit growth (bacteriostatic), and thus these “sulfa drugs” have been used as broad-spectrum antibiotics for decades (Hammoudeh et al., 2013, Roland et al., 1979). […] We also tested the stability of the inhibitors in bacterial cultures and the timing of the inhibitory effect.

The target of assay [4] is T1, V. campbellii LuxR (Vibrio harveyi, UniProt P21308).
T1 construct: expressed in transfected cells; host or cells: E. coli DH10B with pKM699 and reporter pJV064
In words: E. coli dual-color bioassay (pKM699 LuxR, pJV064 reporter). Format: cell-based. The source says:
Previously, we developed a bioassay that consists of a dual-color fluorescent reporter plasmid that reports both LuxR activities: the luxCDABE promoter is activated by LuxR and drives expression of gfp, and the VIBHAR_05222 promoter is repressed by LuxR and drives expression of mCherry (van Kessel et al., 2013b) (FIG. 2A). We used this reporter plasmid in an E. coli strain that also contains a plasmid expressing LuxR from its native promoter.
A bioassay was developed to monitor LuxR function that consists of a dual-color reporter plasmid (pJV064) that reports both activities: the luxCDABE promoter is activated by LuxR and drives expression of gfp, and the 05222 promoter is repressed by LuxR and drives expression of mCherry (van Kessel, Ulrich et al. 2013). This reporter plasmid was used in an E. coli strain that also contains a plasmid (pKM699) expressing LuxR from its native promoter. E. coli cultures containing these two plasmids were grown at 30° C. in LB medium with chloramphenicol (10 μg/ml) and tetracycline (10 μg/ml) to select for the two plasmids. Compounds were added to the cultures at a range of concentrations, and the cultures were incubated for 16 hours shaking at 30° C.
The dual-promoter fluorescence reporter assays were performed using E. coli strain DH10B containing two plasmids: 1) plasmid pJV064 containing the PluxC fused to GFP and P05222fused to mCherry to assess LuxR transcriptional regulation, and 2) plasmid pKM699 expressing V. campbellii luxR under control of its native promoter or empty vector pLAFR2.

The target of assay [5] is LuxR (Vibrio harveyi, UniProt P21308). Description: E. coli bioassay expressing LuxR (IPTG-inducible plasmid). It is filed as cell-based, V. campbellii. The arrangement: expressed in transfected cells; host or cells: E. coli DH10B with pMMB67EH-kanR derivative and pJV064. The settings on record: 25 μM PTSP.
Source text: as §1, §2

In assay [6] the target is T1, V. campbellii LuxR. Description: qRT-PCR and western blots in wild-type V. campbellii. Format: cell-based. The source says:
The Qstatin-treated regulon overlapped with the SmcR regulon by more than 50%, with similar gene expression fold-changes. […] This is important to note because LuxR and HapR proteins are known to autorepress their own expression. To test the effects of adding inhibitors to V. campbellii LuxR, we added 10A, 10B, and 10C to wild-type V. campbellii and used qRT-PCR and western blots to examine the effects on luxR transcript and protein levels. We also examined the transcript levels for luxC and 05222 genes that are directly activated or repressed by LuxR, respectively.
All PCR reactions were performed using Phusion HF polymerase (NEB). T4 polynucleotide kinase (T4 PNK) used in EMSAs and all other enzymes were purchased from NEB and used according to manufacturer's instructions. Site-directed mutagenesis for construction of plasmids expressing mutant proteins was carried out using the Agilent QuikChange II XL Site-Directed Mutagenesis Kit. All oligonucleotides were purchased from Integrated DNA Technologies (IDT).ALL plasmid constructs were confirmed by DNA sequencing (Eurofins). Cloning details for plasmids are available upon request. Western blot analysis was performed as previously described (van Kessel et al., 2013b), except that new anti-LuxR antibodies were generated through Cocalico against purified LuxR protein. In addition, the western blots were probed with anti-RpoB (Neoclone).
Then cells were induced with 50 μM IPTG and grown under the same conditions until cells reached an OD600 of approximately 1, at which 5 mL of cells were collected by centrifugation and frozen in liquid N2. RNA was extracted using a Trizol/chloroform extraction protocol previously described (Rutherford et al., 2011). Quantitative real-time PCR (qRT-PCR) was performed as previously described (Chaparian et al., 2016). Samples were normalized to the internal standard hfq gene. The ΔΔCT values were used to analyze data from three independent biological replicates. Symbols on graphs represent the mean values and error bars represent the standard deviations. All statistical analysis was performed with functions from GraphPad Prism version 8.
A general note: Real-time PCR tracks product formation cycle by cycle.

In assay [7] the test system is VcpR. Description: E. coli bioassay expressing VcpR (IPTG-inducible plasmid). It is filed as cell-based, V. coralliilyticus. The settings on record: 25 μM PTSP.
Source text: as §1, §2

For `O=S(=O)(c1cccs1)n1ccc(-c2ccccc2)n1` [Compound 10B], the “Inhibition of HapR in E. coli bioassay” value in assay [1] (25 μM PTSP) was “unresponsive”. Also, in assay [1] (HapR Y76F, L97I, I141V, F171C, each alone), the “Inhibition of HapR single substitutions” value is reported as “none of these substitutions alone were sufficient to make HapR sensitive”. Further, in assay [1] (combination of Y76F and F171C), the “Inhibition of HapR Y76F and F171C combination” value is “did not result in PTSP inhibition”. The “Inhibition in V. cholerae (in words)” value in assay [2] is recorded as “not active”. Further, the “Growth rate or growth yield” value in assay [3] is “did not alter growth rate or growth yield”. In assay [4] (GFP and mCherry reporters), the “Inhibition of LuxR in the E. coli bioassay (in words)” value was “most potent”. Also, in assay [4] (addition to the culture), the “Time after addition at which GFP production was blocked” value was 120 min. The “Duration for which block of GFP production was maintained” value in assay [4] (longest timepoint tested) was at least 16 h. Further, the pIC50 (usually −log10 of the IC50, conventionally taken in molar units) in assay [4] (read-out: IC50 in the bioassay (approximate)) was 5.70 to 6.00. In addition, the “Inhibition of LuxR in E. coli bioassay” value in assay [5] is given as “inhibited”. Further, the luxC transcripts entry in assay [6] (qRT-PCR, to levels in a ΔluxR strain) is given as “significantly decreased”. Moreover, the 05222 transcripts entry in assay [6] (qRT-PCR, wild-type cultures) is given as “significantly increased”. In assay [6] (western blot, wild-type V. campbellii), the LuxR protein level entry is listed as “visible increase”. The “Inhibition of VcpR in E. coli bioassay” value in assay [7] is “inhibited”.
